According to ChEMBL document CHEMBL1201862, “PubChem BioAssay data set” (2004):
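How tested: cells in 96-well plates exposed to compound for 48 hours at five concentrations. GI50 is the concentration that inhibits growth by half.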 Activity calls are given as the source filed them. Cut-off read from the data, not from the text of the source: active = GI50 up to about 1.1 µM and inactive = higher.

Key:
Test in all cases: NCI anticancer screen, dose series, 48 h
KM12 = system: KM12
SNB-75 = system: SNB-75
UO-31 = system: UO-31
SF-268 = system: SF-268
SNB-19 = system: SNB-19
UACC-62 = system: UACC-62
OVCAR-4 = system: OVCAR-4
SK-OV-3 = system: SK-OV-3
NCI-H23 = system: NCI-H23
A549 = system: A549
M14 = system: M14
MOLT-4 = system: MOLT-4
EKVX = system: EKVX
OVCAR-8 = system: OVCAR-8
HL-60 = system: HL-60
A498 = system: A498

Measured: GI50

Cc1cc2c(c(C(=O)O)c1C)-c1cccc(Cl)c1C2=O
inactive: KM12 > 100 µM | SNB-75 > 100 µM | UO-31 > 100 µM | SF-268 > 100 µM | SNB-19 > 100 µM | UACC-62 > 100 µM | OVCAR-4 > 100 µM | SK-OV-3 > 100 µM | NCI-H23 > 100 µM | A549 > 100 µM | M14 > 100 µM | MOLT-4 > 100 µM | EKVX > 100 µM | OVCAR-8 > 100 µM

COc1ccc(C(C#N)NNC(=O)Cc2ccccc2)cc1OC (centres undefined)
inactive: KM12 > 100 µM | SNB-75 39.9 µM | UO-31 > 100 µM | SF-268 > 100 µM | UACC-62 > 100 µM | OVCAR-4 > 100 µM | SK-OV-3 > 100 µM | NCI-H23 > 100 µM | A549 > 100 µM | M14 > 100 µM | MOLT-4 > 100 µM | HL-60 > 100 µM | OVCAR-8 > 100 µM

Cc1ccc(S(=O)(=O)SCc2ccccc2)cc1
inactive: KM12 25.7 µM | A498 52.8 µM | SNB-75 > 49.3 µM | UO-31 > 92.5 µM | SF-268 34 µM | SNB-19 29.7 µM | UACC-62 29.4 µM | OVCAR-4 15.5 µM | SK-OV-3 52.2 µM | NCI-H23 19 µM | A549 35.8 µM | M14 17.9 µM | MOLT-4 2.32 µM | HL-60 2.44 µM | EKVX 43.8 µM | OVCAR-8 15.3 µM

COc1ccccc1NC(=O)CC(=O)NNCC(=O)Nc1nnc(-c2ccccc2)o1
inactive: KM12 > 100 µM | A498 > 100 µM | SNB-75 > 100 µM | UO-31 > 100 µM | SF-268 > 100 µM | SNB-19 > 100 µM | UACC-62 > 100 µM | OVCAR-4 > 100 µM | SK-OV-3 > 100 µM | NCI-H23 > 100 µM | A549 > 100 µM | M14 > 100 µM | MOLT-4 > 100 µM | EKVX > 100 µM | OVCAR-8 > 100 µM

CCOc1ccc(/N=C/c2cccc3cccnc23)cc1
inactive: KM12 39.8 µM | A498 > 100 µM | SNB-75 > 100 µM | SF-268 > 100 µM | SNB-19 > 100 µM | UACC-62 > 100 µM | OVCAR-4 > 100 µM | SK-OV-3 > 100 µM | NCI-H23 > 100 µM | A549 > 100 µM | M14 44.7 µM | MOLT-4 45.3 µM | HL-60 25.6 µM | EKVX > 100 µM | OVCAR-8 > 100 µM

COc1ccc(NC(=O)NS(=O)(=O)c2ccc(C)cc2)nn1
inactive: KM12 > 100 µM | A498 > 100 µM | SNB-75 > 100 µM | UO-31 > 100 µM | SF-268 > 100 µM | SNB-19 > 100 µM | UACC-62 > 100 µM | OVCAR-4 > 100 µM | SK-OV-3 > 100 µM | NCI-H23 > 100 µM | A549 > 100 µM | M14 > 100 µM | MOLT-4 > 100 µM | HL-60 > 100 µM | EKVX > 100 µM | OVCAR-8 > 100 µM

Nc1ccc(C(=O)N/C(=C\c2cccc([N+](=O)[O-])c2)c2nc3cc(Cl)ccc3[nH]2)cc1
inactive: KM12 > 100 µM | UO-31 36.1 µM | SF-268 97.7 µM | SNB-19 > 100 µM | UACC-62 > 100 µM | OVCAR-4 50.4 µM | SK-OV-3 > 100 µM | NCI-H23 > 100 µM | A549 77.3 µM | M14 74.3 µM | MOLT-4 > 100 µM | EKVX > 100 µM | OVCAR-8 > 100 µM

CCN(CC)c1ccc(/N=C2/C=CC(=C(C#N)C#N)c3ccccc32)c(C)c1
inactive: SNB-75 1.33 µM | UO-31 2.29 µM | SNB-19 3.78 µM | UACC-62 1.38 µM | OVCAR-4 1.88 µM | SK-OV-3 3.83 µM | NCI-H23 1.58 µM | A549 2.18 µM | M14 1.48 µM | MOLT-4 1.96 µM | HL-60 1.26 µM | EKVX 3.21 µM | OVCAR-8 2.23 µM

C[C@]12CCC[C@H](OC=O)C1(O)C[C@H](C(=O)O)CC2 (some centres undefined)
inactive: KM12 > 100 µM | A498 > 100 µM | SNB-75 > 100 µM | UO-31 > 100 µM | SF-268 > 100 µM | SNB-19 > 100 µM | UACC-62 16.5 µM | OVCAR-4 > 100 µM | SK-OV-3 > 100 µM | NCI-H23 > 100 µM | A549 > 100 µM | M14 > 100 µM | MOLT-4 > 100 µM | HL-60 > 100 µM | EKVX 19.8 µM | OVCAR-8 > 100 µM

CCOc1ccc(NC(=O)CCC(=O)NN)cc1
inactive: KM12 > 100 µM | SNB-75 > 100 µM | UO-31 > 100 µM | SF-268 > 100 µM | SNB-19 > 100 µM | OVCAR-4 > 100 µM | NCI-H23 > 100 µM | A549 > 100 µM | M14 > 100 µM | MOLT-4 > 100 µM | HL-60 > 100 µM | EKVX > 100 µM | OVCAR-8 > 100 µM

c1ccc2c(c1)Sc1ccccc1N2C1CN2CCC1CC2 (centres undefined)
inactive: KM12 15.2 µM | A498 8.36 µM | SNB-75 6 µM | UO-31 16.7 µM | SF-268 16.4 µM | SNB-19 18.8 µM | UACC-62 15.2 µM | OVCAR-4 17.7 µM | SK-OV-3 19.5 µM | NCI-H23 24.5 µM | A549 16.7 µM | MOLT-4 12.8 µM | HL-60 14.9 µM | EKVX 13 µM | OVCAR-8 16.4 µM

CCOC(=O)C(=O)Nc1c(C)cccc1C(C)C
inactive: KM12 > 100 µM | A498 > 100 µM | SNB-75 51.2 µM | UO-31 > 100 µM | SF-268 > 100 µM | SNB-19 > 100 µM | UACC-62 > 100 µM | OVCAR-4 > 100 µM | SK-OV-3 > 100 µM | NCI-H23 > 100 µM | A549 > 100 µM | M14 > 100 µM | MOLT-4 > 100 µM | HL-60 > 100 µM | EKVX > 100 µM | OVCAR-8 > 100 µM

Cc1cc(Cl)ccc1NC(=O)CCCC(=O)C1CCC/C1=N\NC(=O)CC#N (centres undefined)
inactive: KM12 > 100 µM | A498 > 100 µM | SNB-75 > 100 µM | UO-31 > 100 µM | SF-268 > 100 µM | SNB-19 > 100 µM | UACC-62 > 100 µM | OVCAR-4 > 100 µM | SK-OV-3 > 100 µM | NCI-H23 > 100 µM | A549 > 100 µM | M14 > 100 µM | MOLT-4 > 100 µM | HL-60 > 100 µM | EKVX > 100 µM | OVCAR-8 > 100 µM

CCCCCC(=O)OCCOCCOCCOCCOCCOCc1ccccc1
inactive: KM12 > 100 µM | A498 > 100 µM | SF-268 > 100 µM | SNB-19 > 100 µM | UACC-62 > 100 µM | OVCAR-4 > 100 µM | NCI-H23 > 100 µM | A549 > 100 µM | EKVX > 100 µM | OVCAR-8 > 100 µM

[Zn+2][N+]12CCN3CCN4CCN(CC1)[PH]432 (centres undefined)
inactive: KM12 > 100 µM | A498 > 100 µM | SNB-75 > 100 µM | UO-31 > 100 µM | SNB-19 > 100 µM | UACC-62 > 100 µM | OVCAR-4 > 100 µM | SK-OV-3 > 100 µM | NCI-H23 > 100 µM | A549 > 100 µM | M14 > 100 µM | MOLT-4 > 100 µM | HL-60 > 100 µM | EKVX > 100 µM | OVCAR-8 > 100 µM

CN(C)CCNC(=O)c1ccccc1Nc1c(Cl)cccc1Cl
inactive: SNB-75 2.07 µM | UO-31 4.52 µM | SF-268 16.2 µM | SNB-19 16.1 µM | UACC-62 16.1 µM | OVCAR-4 14.6 µM | SK-OV-3 13.7 µM | NCI-H23 17.1 µM | A549 10.9 µM | M14 15.4 µM | MOLT-4 13.1 µM | HL-60 11 µM | EKVX 8.2 µM | OVCAR-8 14.1 µM

COC(=O)/C(=N/NC(=O)C[N+](C)(C)C)C(C(=O)OC)C(=O)C(=O)Nc1ccc(F)cc1 (centres undefined)
inactive: KM12 > 100 µM | A498 63.7 µM | SNB-75 > 100 µM | UO-31 > 100 µM | SF-268 > 100 µM | SNB-19 > 100 µM | UACC-62 > 100 µM | OVCAR-4 > 100 µM | SK-OV-3 > 100 µM | NCI-H23 > 100 µM | A549 > 100 µM | M14 > 100 µM | MOLT-4 > 100 µM | HL-60 > 100 µM | EKVX > 100 µM

CC(C)N1C(C)[C@@H](c2ccccc2)O[P@]1(=O)CC1=CCCCC1 (some centres undefined)
inactive: KM12 > 100 µM | A498 > 100 µM | SNB-75 > 100 µM | UO-31 74 µM | SF-268 > 100 µM | SNB-19 > 100 µM | UACC-62 51.5 µM | SK-OV-3 > 100 µM | NCI-H23 82.8 µM | A549 > 100 µM | M14 97.5 µM | MOLT-4 44.3 µM | HL-60 22.4 µM | EKVX 85.9 µM | OVCAR-8 > 100 µM

CC(=O)NC(ON1C(=O)COc2ccccc21)C(Cl)(Cl)Cl (centres undefined)
inactive: KM12 > 100 µM | SNB-75 > 100 µM | UO-31 > 100 µM | SF-268 > 100 µM | SNB-19 > 100 µM | UACC-62 > 100 µM | OVCAR-4 > 100 µM | SK-OV-3 > 100 µM | NCI-H23 > 100 µM | A549 > 100 µM | M14 > 100 µM | MOLT-4 > 100 µM | HL-60 > 100 µM | OVCAR-8 > 100 µM
